Reference: PMC4071569, “Investigation of Indolglyoxamide and Indolacetamide Analogues of Polyamines as Antimalarial and Antitrypanosomal Agents” (Marine Drugs, 2014)
Like-named read-outs stand apart in the source and are kept apart here.

What was measured:
Assay type in all cases: cell-based
[1] = system: L6 rat skeletal myoblast cell line; test: Cytotoxicity towards L6 cells; settings: read-out: IC50 L6
Description: (§1) The in vitro activities against the protozoan parasites T.b. rhodesiense, and P. falciparum and cytotoxicity assessment against L6 cells were determined as reported elsewhere.

[2] = system: Trypanosoma brucei rhodesiense, STIB 900 strain, trypomastigotes stage; test: In vitro anti-trypanosomal activity (growth inhibition); settings: Trypanosoma brucei, read-out: IC50 T. b. rhod.
Description: as §1

[3] = system: Plasmodium falciparum, NF54 strain, IEF stage; test: In vitro antimalarial activity, NF54 drug sensitive strain; settings: for Pf SI (selectivity index for P. falciparum = IC50 L6/IC50 Pf): NF54 strain vs L6
Description: as §1

[4] = L6 rat skeletal myoblast cell line, average of two independent assays
[5] = STIB 900 strain, trypomastigotes, average of two independent assays
[6] = Plasmodium falciparum, NF54 strain, IEF stage, average of two independent assays, read-out: IC50 P. falc.
[7] = NF54 strain, IEF stage, average of two independent assays, read-out: IC50 P. falc.

Row | Molecule | IC50 ([1]; Rattus norvegicus, Myoblast) [nM] | IC50 [1, 4] [nM] | IC50 [2, 5] [nM] | Pf SI (selectivity index for P. falciparum = IC50 L6/IC50 Pf) [3] | IC50 [3, 6] [nM] | IC50 [2] [nM] | IC50 ([3]; Plasmodium falciparum, NF54, read-out: IC50 P. falc.) [nM] | IC50 [3, 7] [nM]
1 | COc1cc([C@@H]2c3cc4c(cc3[C@H](O)[C@H]3COC(=O)[C@H]23)OCO4)cc(OC)c1OC [Podophyllotoxin, reference compound] | 19 | – | – | – | – | – | – | –
2 | COc1ccc2[nH]cc(C(=O)C(=O)NCCCN(CCCCCCCCN(CCCNC(=O)C(=O)c3c[nH]c4ccc(OC)cc34)C(=O)OC(C)(C)C)C(=O)OC(C)(C)C)c2c1 [Compound 18, Di-tert-butyl Octane-1,8-diylbis((3-(2-(5-methoxy-1H-indol-3-yl)-2-oxoacetamido)propyl)carbamate)] | – | ≥ 120000 | 6200 | ≥920 | 130 | – | – | –
3 | O=C(Cc1c[nH]c2ccccc12)NCCCNCCCCCCCCNCCCNC(=O)Cc1c[nH]c2ccccc12.O=C(O)C(F)(F)F.O=C(O)C(F)(F)F [Compound 37, N^1,N^8-Bis(3-(2-(1H-indol-3-yl)acetamido)propyl)octane-1,8-diaminium 2,2,2-trifluoroacetate] | – | 64000 | – | 430 | 150 | – | – | –
4 | COc1ccc2[nH]cc(C(=O)C(=O)NCCCN(CCCCCCCCCCCCN(CCCNC(=O)C(=O)c3c[nH]c4ccc(OC)cc34)C(=O)OC(C)(C)C)C(=O)OC(C)(C)C)c2c1 [Compound 22, Di-tert-butyl Dodecane-1,12-diylbis((3-(2-(5-methoxy-1H-indol-3-yl)-2-oxoacetamido)propyl)carbamate)] | – | 19000 | 5200 | 53 | 360 | – | – | –
5 | COc1ccc2c(C(=O)C(=O)NCCCNCCCCCCCCCCCCNCCCNC(=O)C(=O)c3c[nH]c4cc(OC)ccc34)c[nH]c2c1.O=C(O)C(F)(F)F.O=C(O)C(F)(F)F [Compound 31, N^1,N^12-Bis(3-(2-(6-methoxy-1H-indol-3-yl)-2-oxoacetamido)propyl)dodecane-1,12-diaminium 2,2,2-trifluoroacetate] | – | 6000 | 180 | 25 | 240 | – | – | –
6 | Nc1nc(N)nc(Nc2ccc([As]3SCC(CO)S3)cc2)n1 (stereo not shown) [Melarsoprol, reference compound] | – | – | – | – | – | 5 | – | –
7 | O=C(NCCCNCCCCCCCCCCCCNCCCNC(=O)C(=O)c1c[nH]c2ccccc12)C(=O)c1c[nH]c2ccccc12.O=C(O)C(F)(F)F.O=C(O)C(F)(F)F [Compound 29, N^1,N^12-Bis(3-(2-(1H-indol-3-yl)-2-oxoacetamido)propyl)dodecane-1,12-diaminium 2,2,2-trifluoroacetate] | – | 2300 | 270 | 70 | 33 | – | – | –
8 | CC(C)(C)OC(=O)N(CCCCCCCCCCCCN(CCCNC(=O)Cc1c[nH]c2ccccc12)C(=O)OC(C)(C)C)CCCNC(=O)Cc1c[nH]c2ccccc12 [Compound 35, Di-tert-butyl Dodecane-1,12-diylbis((3-(2-(1H-indol-3-yl)acetamido)propyl)carbamate)] | – | 45000 | – | 56 | 800 | – | – | –
9 | CCN(CC)CCCC(C)Nc1ccnc2cc(Cl)ccc12 (stereo not shown) [Chloroquine, reference compound] | – | – | – | – | – | – | 4 | –
10 | COc1ccc2c(C(=O)C(=O)NCCCNCCCCCCCCNCCCNC(=O)C(=O)c3c[nH]c4cc(OC)ccc34)c[nH]c2c1.O=C(O)C(F)(F)F.O=C(O)C(F)(F)F [Compound 27, N^1,N^8-Bis(3-(2-(6-methoxy-1H-indol-3-yl)-2-oxoacetamido)propyl)octane-1,8-diaminium 2,2,2-trifluoroacetate] | – | 21000 | 2200 | 120 | 170 | – | – | –
11 | O=C(NCCCNCCCCCCCCNCCCNC(=O)C(=O)c1c[nH]c2cc(Br)ccc12)C(=O)c1c[nH]c2cc(Br)ccc12.O=C(O)C(F)(F)F.O=C(O)C(F)(F)F [Compound 8, N^1,N^8-Bis(3-(2-(6-bromo-1H-indol-3-yl)-2-oxoacetamido)propyl)octane-1,8-diaminium 2,2,2-trifluoroacetate] | – | 5600 | – | 14 | 410 | – | – | –
12 | COc1ccc2c(C(=O)C(=O)NCCCN(CCCCCCCCCCCCN(CCCNC(=O)C(=O)c3c[nH]c4cc(OC)ccc34)C(=O)OC(C)(C)C)C(=O)OC(C)(C)C)c[nH]c2c1 [Compound 23, Di-tert-butyl Dodecane-1,12-diylbis((3-(2-(6-methoxy-1H-indol-3-yl)-2-oxoacetamido)propyl)carbamate)] | – | ≥ 110000 | 62000 | ≥58 | 1900 | – | – | –
13 | CC(C)(C)OC(=O)N(CCCCN(CCCNC(=O)Cc1c[nH]c2ccccc12)C(=O)OC(C)(C)C)CCCNC(=O)Cc1c[nH]c2ccccc12 [Compound 33, Di-tert-butyl Butane-1,4-diylbis((3-(2-(1H-indol-3-yl)acetamido)propyl)carbamate)] | – | 19000 | 7100 | 120 | 160 | – | – | –
14 | N^1,N^4-Bis(3-(2-(5-methoxy-1H-indol-3-yl)acetamido)propyl)butane-1,4-diaminium 2,2,2-trifluoroacetate [Compound 14] | – | 56000 | – | 120 | – | – | – | 470
15 | O=C(NCCCNCCCCNCCCNC(=O)C(=O)c1c[nH]c2ccccc12)C(=O)c1c[nH]c2ccccc12.O=C(O)C(F)(F)F.O=C(O)C(F)(F)F [Compound 13, N^1,N^4-Bis(3-(2-(1H-indol-3-yl)-2-oxoacetamido)propyl)butane-1,4-diaminium 2,2,2-trifluoroacetate] | – | 60000 | – | 500 | 120 | – | – | –
16 | CC(C)(C)OC(=O)N(CCCCCCCCCCCCN(CCCNC(=O)C(=O)c1c[nH]c2ccccc12)C(=O)OC(C)(C)C)CCCNC(=O)C(=O)c1c[nH]c2ccccc12 [Compound 21, Di-tert-butyl Dodecane-1,12-diylbis((3-(2-(1H-indol-3-yl)-2-oxoacetamido)propyl)carbamate)] | – | ≥ 120000 | 61000 | ≥67 | 1800 | – | – | –
17 | O=C(NCCCCNCCCNC(=O)C(=O)c1c[nH]c2cc(Br)ccc12)C(=O)c1c[nH]c2cc(Br)ccc12.O=C(O)C(F)(F)F [Compound 5, 4-(2-(6-Bromo-1H-indol-3-yl)-2-oxoacetamido)-N-(3-(2-(6-bromo-1H-indol-3-yl)-2-oxoacetamido)propyl)butan-1-aminium 2,2,2-trifluoroacetate] | – | 5500 | – | 22 | 250 | – | – | –
18 | O=C(Cc1c[nH]c2ccccc12)NCCCNCCCCCCCCCCCCNCCCNC(=O)Cc1c[nH]c2ccccc12.O=C(O)C(F)(F)F.O=C(O)C(F)(F)F [Compound 38, N^1,N^12-Bis(3-(2-(1H-indol-3-yl)acetamido)propyl)dodecane-1,12-diaminium 2,2,2-trifluoroacetate] | – | 19000 | – | 160 | 120 | – | – | –
19 | COc1cccc2c(C(=O)C(=O)NCCCNCCCCCCCCCCCCNCCCNC(=O)C(=O)c3c[nH]c4c(OC)cccc34)c[nH]c12.O=C(O)C(F)(F)F.O=C(O)C(F)(F)F [Compound 32, N^1,N^12-Bis(3-(2-(7-methoxy-1H-indol-3-yl)-2-oxoacetamido)propyl)dodecane-1,12-diaminium 2,2,2-trifluoroacetate] | – | 2100 | 260 | 210 | 10 | – | – | –
20 | CC(C)(C)OC(=O)N(CCCCCCCCN(CCCNC(=O)C(=O)c1c[nH]c2cc(Br)ccc12)C(=O)OC(C)(C)C)CCCNC(=O)C(=O)c1c[nH]c2cc(Br)ccc12 [Compound 7, Di-tert-butyl Octane-1,8-diylbis((3-(2-(6-bromo-1H-indol-3-yl)-2-oxoacetamido)propyl)carbamate)] | – | 92000 | – | 340 | 270 | – | – | –
21 | N^1,N^4-Bis(3-(2-(6-methoxy-1H-indol-3-yl)acetamido)propyl)butane-1,4-diaminium 2,2,2-trifluoroacetate [Compound 15] | – | 54000 | – | 110 | – | – | – | 500
22 | COc1ccc2[nH]cc(C(=O)C(=O)NCCCNCCCCCCCCCCCCNCCCNC(=O)C(=O)c3c[nH]c4ccc(OC)cc34)c2c1.O=C(O)C(F)(F)F.O=C(O)C(F)(F)F [Compound 30, N^1,N^12-Bis(3-(2-(5-methoxy-1H-indol-3-yl)-2-oxoacetamido)propyl)dodecane-1,12-diaminium 2,2,2-trifluoroacetate] | – | 17000 | 270 | 85 | 200 | – | – | –
23 | CC(C)(C)OC(=O)N(CCCCCCCCN(CCCNC(=O)Cc1c[nH]c2ccccc12)C(=O)OC(C)(C)C)CCCNC(=O)Cc1c[nH]c2ccccc12 [Compound 34, Di-tert-butyl Octane-1,8-diylbis((3-(2-(1H-indol-3-yl)acetamido)propyl)carbamate)] | – | 5000 | – | 17 | 300 | – | – | –
24 | O=C(NCCCNCCCCNCCCNC(=O)C(=O)c1c[nH]c2cc(Br)ccc12)C(=O)c1c[nH]c2cc(Br)ccc12.O=C(O)C(F)(F)F.O=C(O)C(F)(F)F [Compound 6, N^1,N^4-Bis(3-(2-(6-bromo-1H-indol-3-yl)-2-oxoacetamido)propyl)butane-1,4-diaminium 2,2,2-trifluoroacetate] | – | 7700 | – | 21 | 360 | – | – | –
